According to US20110200708A1, “A COMPOSITION FOR ACTIVATING AND/OR STABILIZING MICRO-ORGANISMS” (priority 2008, published 2011):
Values joined by “and” are separate entries in the source; they are usually repeats but may differ in a detail not shown here. Identical values can stand only once. Like-named read-outs stand apart in the source and are kept apart here.

Key:
[1] = system: mesophilic lactic acid bacteria Strain 4; settings: 31° C.
Procedure: (§1) One litre of 2%-fat UHT milk was added to a previously sterilized 1200 ml fermentor vessel. Suspensions of yeast extract formulated with either iron pyrophosphate or iron sulfate were sterilized separately and added to the vessel to supply the milk with 0.02 wt % yeast extract and iron at a final amount of 2.4, 4.2 or 6 ppm.
(§2) Vessels were heated to 31° C., inoculated with freshly thawed culture concentrates and incubated for 7 hours under pH-control (pH between 5.9 and 6.1). After the incubation, the obtained starter culture was immediately cooled to a temperature below 8° C.
(§3) The obtained starter culture was tested for acidification activity by inoculating cold 2%-fat UHT-pasteurised milk with 3.0% (v/v) of the culture, incubating the inoculated milk for 2.5 hours at 31° C., and then measuring the change in pH of the milk versus non-inoculated milk. The experiment was done for five different mesophilic lactic acid bacteria strains.

[2] = system: mesophilic lactic acid bacteria Strain 5; settings: 31° C.
Procedure: as §1, §2, §3

[3] = system: mesophilic lactic acid bacteria Strain 3; settings: 31° C.
Procedure: as §1, §2, §3

[4] = system: strain 6; assay: Acidification activity of strain 6 bulk starter cultures at different iron and manganese concentrations; format: cell-based, mesophilic lactic acid bacteria
Procedure: The strains were fermented in sterilized production medium in a standard fermentation vessel. The fermentation was carried out by maintaining the pH between 6-6.5 with ammonia at a temperature of about 30° C. The culture was harvested after ammonia consumption was stabilized. The culture was cooled to a temperature of below 10° C. and centrifuged. A concentration factor (harvested broth over pellet volume) of 15-20 was obtained. The obtained concentrate was used for further testing, e.g. with the cell concentrates a series of bulk starter culture fermentations was performed. […] The bulk starter culture was prepared by fermenting the milk during 6 hours at 30° C. under pH-stat conditions. Ammonia was used to maintain the pH at 6.0-6.2. Samples (1.5 ml) of the cultures were taken after 5 and 6 hours fermentation. The samples were tested to establish the acidification activity of the culture under standard conditions. […] Several different final iron and manganese concentrations were used in this experiment. The bulk starter culture was prepared as described above with the proviso that the UHT milk was inoculated with 0.6 wt % cell concentrate.

[5] = system: mesophilic lactic acid bacteria Strain 2; settings: 31° C., in the absence of iron 1.44
Procedure: as §1, §2, §3

[6] = system: mesophilic lactic acid bacteria Strain 1; settings: 31° C., in the absence of iron 1.18
Procedure: as §1, §2, §3

[7] = system: mesophilic lactic acid bacteria Strain 8; assay: Acidification activity of bulk starter cultures with yeast extract, iron, manganese and/or molybdate, Strain 8; format: cell-based; settings: YE 0.02 wt %, Fe, Mn, Mo 8 ppm each
Procedure: (§4) The strains were fermented in sterilized production medium in a standard fermentation vessel. The fermentation was carried out by maintaining the pH between 6-6.5 with ammonia at a temperature of about 30° C. The culture was harvested after ammonia consumption was stabilized. The culture was cooled to a temperature of below 10° C. and centrifuged. A concentration factor (harvested broth over pellet volume) of 15-20 was obtained. The obtained concentrate was used for further testing, e.g. with the cell concentrates a series of bulk starter culture fermentations was performed. […] The bulk starter culture was prepared by fermenting the milk during 6 hours at 30° C. under pH-stat conditions. Ammonia was used to maintain the pH at 6.0-6.2. Samples (1.5 ml) of the cultures were taken after 5 and 6 hours fermentation. The samples were tested to establish the acidification activity of the culture under standard conditions. […] The strains were fermented as described in Example 6. The bulk starter cultures were prepared as described in Example 6 with the proviso that the UHT milk was inoculated with 0.6 wt % cell concentrate. Acid production was measured as described in Example 6 with the proviso that 6 gram sample was taken from the cultures after 5 and 6 hours and added to 200 g UHT milk. The experiment was done with two different strains.

[8] = system: mesophilic lactic acid bacteria Strain 9; assay: Acidification activity of bulk starter cultures with yeast extract, iron, manganese and/or molybdate, Strain 9; format: cell-based; settings: YE 0.02 wt %, Fe, Mn, Mo 8 ppm each
Procedure: as §4

[9] = Strain 4, 2.4 ppm iron + 0.02 wt % yeast extract
[10] = Strain 4, 4.2 ppm iron + 0.02 wt % yeast extract
[11] = Strain 4, 6.0 ppm iron + 0.02 wt % yeast extract
[12] = Strain 5, 2.4 ppm iron + 0.02 wt % yeast extract
[13] = Strain 5, 4.2 ppm iron + 0.02 wt % yeast extract
[14] = Strain 5, 6.0 ppm iron + 0.02 wt % yeast extract
[15] = Strain 3, 2.4 ppm iron + 0.02 wt % yeast extract
[16] = Strain 3, 4.2 ppm iron + 0.02 wt % yeast extract
[17] = Strain 3, 6.0 ppm iron + 0.02 wt % yeast extract

O=P([O-])([O-])OP(=O)([O-])[O-].O=P([O-])([O-])OP(=O)([O-])[O-].O=P([O-])([O-])OP(=O)([O-])[O-].[Fe+3].[Fe+3].[Fe+3].[Fe+3] [Iron pyrophosphate, iron pyrophosphate]
Acidification activity [1, 9]: 1.48 ΔpH/2.5 h
Acidification activity [1, 10]: 1.56 ΔpH/2.5 h
Acidification activity [1, 11]: 1.58 ΔpH/2.5 h
Acidification activity [2, 12]: 1.25 ΔpH/2.5 h
Acidification activity [2, 13]: 1.32 ΔpH/2.5 h
Acidification activity [2, 14]: 1.33 ΔpH/2.5 h
Acidification activity [3, 15]: 1.45 ΔpH/2.5 h
Acidification activity [3, 16]: 1.48 ΔpH/2.5 h
Acidification activity [3, 17]: 1.50 ΔpH/2.5 h

O=S(=O)([O-])[O-].[Mn+2] [M, manganese sulphate]
Acidification activity of bulk starter culture ([4]; strain 6, Fe 0 ppm, Mn 2.4 ppm, 7 hours, 0/0 ppm 1.61): 1.65 ΔpH/2.5 h

O=S(=O)([O-])[O-].[Fe+2] [Iron sulphate, iron sulphate]
Acidification activity ([5]; Strain 2, 2.4 ppm iron + 0.02 wt % yeast extract): 1.77 ΔpH/2.5 h
Acidification activity ([5]; Strain 2, 6.0 ppm iron + 0.02 wt % yeast extract): 1.71 ΔpH/2.5 h
Acidification activity [1, 9]: 1.54 ΔpH/2.5 h
Acidification activity [1, 10]: 1.56 ΔpH/2.5 h
Acidification activity [1, 11]: 1.57 ΔpH/2.5 h
Acidification activity [2, 12]: 1.29 ΔpH/2.5 h
Acidification activity [2, 13]: 1.33 ΔpH/2.5 h
Acidification activity [2, 14]: 1.35 ΔpH/2.5 h
Acidification activity ([6]; Strain 1, 2.4 ppm iron + 0.02 wt % yeast extract): 1.47 ΔpH/2.5 h
Acidification activity ([6]; Strain 1, 6.0 ppm iron + 0.02 wt % yeast extract): 1.53 ΔpH/2.5 h
Acidification activity [3, 15]: 1.49 ΔpH/2.5 h
Acidification activity [3, 16]: 1.49 ΔpH/2.5 h
Acidification activity [3, 17]: 1.51 ΔpH/2.5 h
Acidification activity of bulk starter culture [4]: 1.67 ΔpH/2.5 h and 1.66 ΔpH/2.5 h

[Na+].[Na+].[O]=[Mo](=[O])([O-])[O-] [Mo, sodium molybdate]
Acidification activity of bulk starter culture ([7]; Strain 8, 5 hours, no addition 0.64): 0.73 ΔpH/2.5 h
Acidification activity of bulk starter culture ([7]; Strain 8, 6 hours, no addition 1.08): 1.04 ΔpH/2.5 h
Acidification activity of bulk starter culture ([8]; Strain 9, 5 hours, no addition 0.33): 0.55 ΔpH/2.5 h
Acidification activity of bulk starter culture ([8]; Strain 9, 6 hours, no addition 0.43): 0.79 ΔpH/2.5 h
